Laboratory results from US12310970B2, “Compounds and methods for treating or preventing anterior segment ocular disorders and/or retinal degenerations” (YALE UNIVERSITY, priority 2018, dated 2025).
Entries after “also recorded” stand apart in the source; their conditions may differ. Where a name gives a salt, the structure may show the parent alone.

Tests used:
Assay type in all cases: cell-based
[1] = system: Human iPSC-derived RPE cells; assay: Mitochondrial respiration (Seahorse XF) after TBHP in iPSC-derived RPE
Description: Human iPSC-derived RPE cells were preincubated with 3 μM ciclopirox olamine for 18 hours, then treated with 500 μM tert-butyl hydroperoxide (TBHP) for 24 hours. Oxygen consumption rate was determined using the Seahorse XF analyzer to measure mitochondrial function. FIG. 7A depicts basal respiration. FIG. 7B depicts maximal oxygen consumption rate (OCR). FIG. 7C depicts spare respiratory capacity. FIG. 7D depicts ATP production.
Human iPSCs were derived from fibroblasts of a donor with no history of retinal disease. A skin specimen was processed as previously described. Briefly, the skin biopsy was transplanted onto a culture plate and fibroblasts were grown to confluence and then treated with four Yamanaka factors, Oct3/4, Sox-2, Klf4, and c-Myc using the CytoTune™-iPS 2.0 Sendai Reprogramming Kit according to the manufacturer's instructions (Invitrogen-Gibco, Life Technologies=) (31-36). Newly generated iPSC colonies were purified and expanded using MTeSR1™ media (Stem Cell Technologies, Vancouver, Canada).
Human iPSCs were differentiated to iPSC-derived RPE cells as previously described. Human iPSC colonies were lifted and grown as embryoid bodies (EBs) for 4 days in EB formation medium (STEMCELL Technologies). After 5 days, EB medium was replaced with neural induction medium (NIM) containing DMEM/F12 (1:1), 1% N-2 supplement (MEM non-essential amino acids and 2 μg/mL heparin) and suspended EB aggregates were plated onto laminin-coated culture plates and allowed to reattach. After 16 days, neural induction medium was replaced with retinal differentiation medium (RDM) containing DMEM/F12 (3:1), 2% B-27 supplement (Invitrogen-Gibco, Life Technologies), MEM non-essential amino acids and penicillin/streptomycin. The adherent culture was maintained in RDM until the appearance of pigmented iPSC-derived RPE cells. Patches of pigmented iPSC-derived RPE cells were then micro-dissected and cultured on Transwell® plates with RDM+10% fetal bovine serum (FBS) for 2 days and then switched to RDM with 2% FBS until the cells were confluent. Human iPSC-derived RPE cells were then maintained in RDM and allowed to form monolayers within 90 days.
(§1) Analysis of mitochondrial function was performed on live cells using XFe96 Extracellular Flux Analyzer (Seahorse Bioscience) using the cell mito stress test (CMST). Human ARPE-19 cells or iPSC-derived RPE were seeded in a 96 well plate and grown for 24 h. Cells were preincubated with compound or no compound for 24 hours and then exposed to varying concentrations of TBHP the next day for 24 hours. Cells were the washed with CMST assay medium (XF base medium DMEM supplemented with 2 mM glutamine, 5.5 mM glucose, and 1 mM sodium pyruvate, pH 7.4), and then incubated in CMST medium for 1 h at 37° C. in a non-CO2 incubator. The CMST assay protocol was performed by manufacturer guidance (Seahorse Bioscience). Oxygen consumption rate (OCR) was detected under basal conditions followed by the sequential addition of oligomycin, carbonyl cyanide 4-(trifluoromethoxy) phenylhydrazone (FCCP), as well as rotenone and antimycin A. The measured parameters include: basal respiration, adenosine triphosphate (ATP) production, maximal respiration, spare respiratory capacity.
(§2) Human iPSC-derived RPE cells were preincubated with 0.6 μM of compound 414 or compound 434 for 18 hours, then treated with 300 μM TBHP for 24 hours and oxygen consumption rate determined using the Seahorse XF analyzer.

[2] = system: Human ARPE-19 cells; assay: Mitochondrial respiration (Seahorse XF, oxygen consumption rate) after TBHP in ARPE-19
Description: as §1
Human ARPE-19 cells were preincubated with 3 μM ciclopirox olamine for 18 hours, then treated with 500 μM TBHP for 24 hours and oxygen consumption rate determined using the Seahorse XF analyzer.
as §2, with “The effects of compound treatment on mitochondrial function in human RPE cells were investigated. Human” for “Human”, “ARPE-19” for “iPSC-derived RPE”

[3] = system: Human ARPE-19 cells; assay: UV-B radiation damage in ARPE-19; conditions: then 1200 mJ/cm^2 UV-B
Description: Human ARPE-19 cells were plated in 96-well plates for 24 hours in DMEM supplemented with FBS and antibiotics. ARPE-19 cells were preincubated with compound or no compound for 24 hours and then exposed to 1200 mJ/cm^2 ultraviolet B (UV-B) radiation in a chamber. Cell viability was measured the following day by […] MT cell viability assay (Promega) using a BioTek FLx800™ fluorescence reader (BioTek, Winooski, VT).
Human ARPE-19 cells were then preincubated with 3 μM of ciclopirox olamine for 24 hours and then exposed to 1200 mJ/cm^2 of UV-B radiation. Ciclopirox olamine protects human ARPE-19 cells exposed to 1200 mJ/cm^2 UV-B radiation (FIG. 6).
To confirm the results using TBHP, another model of oxidative stress in which human RPE cells are exposed to UV-B light was employed. […] Human ARPE-19 cells were then preincubated with 0.6 μM of compound 414 and compound 434 for 24 hours and then exposed to 1200 mJ/cm^2 of UV-B radiation. Compound 414 and compound 434 protective human ARPE-19 cells exposed to 1200 mJ/cm^2 UV-B radiation (FIG. 11).

[4] = system: Human ARPE-19 cells; assay: TBHP-induced oxidative stress cell viability assay (RealTime-Glo) in ARPE-19; conditions: for protection from oxidative stress-induced cell death: 0.9 μM 24 h preincubation, 400 μM TBHP 24 h; for protection from TBHP-induced cell death in screen of 65,000 compound Chemical Diversity library: initial high-throughput screening
Description: Immortalized human RPE cells (ARPE-19) obtained from the American Type Culture Collection (ATCC, Manassas, VA, USA) were cultured in Dulbecco's modified Eagle's medium (DMEM; Thermo Fisher Scientific, Waltham, MA) containing 10% fetal bovine serum (FBS), 100 IU/mL penicillin, 100 μg/mL streptomycin, 100 μg/mL gentamicin, and 2.5 μg/mL amphotericin B (Thermo Fisher Scientific).
Human ARPE-19 cells were plated in 96-well plates for 24 hours in DMEM supplemented with FBS and antibiotics. ARPE-19 cells were preincubated with either ciclopirox olamine (Sigma), compound 414 (Chemical Diversity, San Diego, CA), compound 434 (Chemical Diversity) or no compound for 24 hours and then exposed to varying concentrations of tert-butyl hydroperoxide (TBHP; Sigma-Aldrich, St. Louis, MO) the next day for 24 hours. Cell viability was measured the following day by RealTime-Glo™ MT cell viability assay (Promega, Madison, WI) using a BioTek FLx800™ fluorescence reader (BioTek, Winooski, VT).
Initial screening of a library with 640 FDA-approved drugs (Enzo Life Sciences FDA-approved drug library) with known bioactivity, safety & bioavailability, and natural products was performed using TBHP, a chemical oxidizing agent, as a model of oxidative stress-induced cell death.
Initial screening of a library with 65,000 synthetic compounds (Chemical Diversity library) using tert-butyl hydroperoxide (TBHP), a chemical oxidizing agent, as a model of oxidative stress-induced cell death.

[5] = 3 μM 18 h, then 500 μM TBHP 24 h
[6] = 3 μM 18 h, then 500 μM TBHP 24 h, vs TBHP-treated group
[7] = 0.6 μM 18 h, then 300 μM TBHP 24 h

Cc1cc(C2CCCCC2)n(O)c(=O)c1 [ciclopirox olamine, 6-cyclohexyl-1-hydroxy-4-methyl-2(1H)-pyridone, ethanolamine salt, reference compound]
ATP production [1, 5]: significantly increased
basal respiration [1, 5]: significantly increased
maximal OCR [1, 5]: significantly increased
reserve capacity [1, 5]: significantly increased
ATP turnover [2, 6]: significantly increased
basal respiration [2, 6]: significantly increased
maximal OCR [2, 6]: significantly increased
reserve capacity [2, 6]: significantly increased
protection from UV-B radiation damage ([3]; 3 μM 24 h): protects
cell viability after challenge with TBHP (luminescence); protection from oxidative stress-induced cell death ([4]; ARPE-19, ciclopirox olamine preincubation 24 h, then TBHP 24 h (FIG. 1: 0.9 μM, 300 μM TBHP)): protects; also recorded: significantly enhances cell viability
protection from TBHP-induced cell death in screen of 640 FDA-approved drug library ([4]; ARPE-19, initial library screening): significantly protects
cell viability, treatment alone compared to no treatment ([4]; human RPE cells, ciclopirox olamine alone, no TBHP): significantly enhances cell viability

CCc1cccc(C)c1Nc1c(-c2cc(Br)ccc2O)nc2ncccn12 [compound 414]
ATP production [1, 7]: significantly increased
basal respiration [1, 7]: significantly increased
maximal OCR [1, 7]: significantly increased
reserve capacity [1, 7]: significantly increased
ATP production [2, 7]: significantly increased
basal respiration [2, 7]: significantly increased
maximal OCR [2, 7]: significantly increased
reserve capacity [2, 7]: significantly increased
protection from UV-B radiation damage ([3]; 0.6 μM 24 h): protective
protection from oxidative stress-induced cell death ([4]; ARPE-19): Protective effects
cell viability after challenge with TBHP (luminescence); protection from oxidative stress-induced cell death ([4]; ARPE-19, compound preincubation, TBHP 24 h (FIG. 8: 0.6 μM, 300 μM TBHP)): protects; also recorded: significantly enhances cell viability
protection from TBHP-induced cell death in screen of 65,000 compound Chemical Diversity library ([4]; ARPE-19): significantly protects

CCc1cccc(C)c1Nc1c(-c2cc(Br)ccc2O)nc2nc(C)cc(C)n12 [compound 434]
ATP production [1, 7]: significantly increased
basal respiration [1, 7]: significantly increased
ATP production [2, 7]: significantly increased
basal respiration [2, 7]: significantly increased
maximal OCR [2, 7]: significantly increased
reserve capacity [2, 7]: significantly increased
protection from UV-B radiation damage ([3]; 0.6 μM 24 h): protective
protection from oxidative stress-induced cell death ([4]; ARPE-19): Protective effects
protection from TBHP-induced cell death in screen of 65,000 compound Chemical Diversity library ([4]; ARPE-19): significantly protects
